Reference: US8192962B2, “Processes for detecting toxic substances” (Daikin Industries, Ltd., priority 2001, dated 2012)

Test system: Metabolism protein genes
Assay: DNA chip mRNA expression in yeast, metabolism protein genes (Table 7)
Assay type: cell-based, Saccharomyces cerevisiae S288C
Protocol: Yeast (Saccharomyces cerevisiae S288C (α SUC2mal mel gap2 CUP1)) were incubated at 25° C. on YPD medium (yeast extract 1%, polypepton 2%, glucose 2%). One of toxic chemical substances was added to the cells at logarithmic growth phase, and the cells were further incubated for two hours. Cells were cultured without any chemical substance in the same condition, and were used as control. Concentrations of the chemical substances were defined to inhibit the growth of the yeast but not lead to death.
After completion of the incubation, the culture was centrifuged to collect the cells. To the cells, sodium acetate buffer (50 mM sodium acetate, 10 mM EDTA, 1% SDS) was added, and the mixture was shaken at 65° C. for five minutes, followed by returning to room temperature, and obtaining the supernatant, of which the procedures were repeated two times. To the supernatant, ½ amount of a solution of phenol/chloroform was added, and the mixture was centrifuged to give a supernatant, which was added with an equal amount of chloroform, and the mixture was centrifuged to give a supernatant. To the supernatant, an equal amount of isopropanol containing 0.3 M sodium acetate was added, and the mixture was allowed to stand at room temperature for 30 minutes, after which the mixture was centrifuged to give a sediment of the whole RNAs. Seventy % ethanol was added to the sediment, and the mixture was again centrifuged to give a sediment, which was then dried and dissolved in water. mRNA was isolated from the whole RNAs as followings. In view of the fact that a poly A chain is attached to the 3′ terminus of mRNA, a polynucleotide having a poly T structure which was immobilized on the surface of latex beads was used to trap the mRNA, and then the mRNA was washed and eluted with spine column (Oligotex-dT30<Super>mRNA Purification Kit, Takara). Reverse transcription of the mRNA was conducted with a reverse transcriptase (Super Script II Reverse Transcriptase; catalogue No. 18064-014, GibcoBRL) using fluorescence-labeled nucleotides to give cDNAs that were introduced with Cy3-dUTP or Cy5-dUTP during the reverse transcription.
The labeled cDNAs were dissolved in TE buffer (10mM Tris-HCl/1 mM EDTA, pH8.0), and the solution was dropped on the DNA chip containing the whole genes of yeast (DNA Chip Research Inc. Japan) so that the cDNAs were hybridized on the DNA chip at 65° C. for over 12 hours. The fluoresces intensity of the DNA chip was read with a scanner, and the ratio relative to the fluorescence intensity resulting from the absence of chemical substance was estimated as the following, which is shown in Tables 1 to 9: […]

Q: `Oc1cc(Cl)c(Cl)cc1Cl` [(6), 2,4,5-trichlorophenol] was tested. Which “The level of expressed mRNA in the presence of chemical substance/The level of expressed mRNA in the absence of chemical substance” value (yeast gene YAL012W) did it give?
A: 1.6

Q: And the “The level of expressed mRNA in the presence of chemical substance/The level of expressed mRNA in the absence of chemical substance” value (yeast gene YAL038W)?
A: 1.3

Q: And the “The level of expressed mRNA in the presence of chemical substance/The level of expressed mRNA in the absence of chemical substance” value (yeast gene YBL001C)?
A: 2.4

Q: What about the “level of expressed mRNA in the presence/in the absence of chemical substance” value (yeast gene YBR003W) of the same compound?
A: 1.2

Q: What about the “level of expressed mRNA in the presence/in the absence of chemical substance” value (yeast gene YBR011C) of the same compound?
A: 2.0

Q: And the “level of expressed mRNA in the presence/in the absence of chemical substance” value (yeast gene YBR020W)?
A: 0.8

Q: And the “The level of expressed mRNA in the presence of chemical substance/The level of expressed mRNA in the absence of chemical substance” value (yeast gene YBR023C)?
A: 0.5

Q: And the “The level of expressed mRNA in the presence of chemical substance/The level of expressed mRNA in the absence of chemical substance” value (yeast gene YBR029C)?
A: 0.8

Q: What about the “The level of expressed mRNA in the presence of chemical substance/The level of expressed mRNA in the absence of chemical substance” value (yeast gene YBR111C) of the same compound?
A: 3.0

Q: What about the “The level of expressed mRNA in the presence of chemical substance/The level of expressed mRNA in the absence of chemical substance” value (yeast gene YBR183W) of the same compound?
A: 2.5

Q: What about the “The level of expressed mRNA in the presence of chemical substance/The level of expressed mRNA in the absence of chemical substance” value (yeast gene YBR222C) of the same compound?
A: 1.3

Q: And the “The level of expressed mRNA in the presence of chemical substance/The level of expressed mRNA in the absence of chemical substance” value (yeast gene YBR256C)?
A: 2.0

Q: And the “The level of expressed mRNA in the presence of chemical substance/The level of expressed mRNA in the absence of chemical substance” value (yeast gene YCL009C)?
A: 1.8

Q: And the “The level of expressed mRNA in the presence of chemical substance/The level of expressed mRNA in the absence of chemical substance” value (yeast gene YCL064C)?
A: 3.3

Q: What about the “level of expressed mRNA in the presence/in the absence of chemical substance” value (yeast gene YCR010C) of the same compound?
A: 1.3

Q: And the “level of expressed mRNA in the presence/in the absence of chemical substance” value (yeast gene YCR034W)?
A: 0.3

Q: What about the “The level of expressed mRNA in the presence of chemical substance/The level of expressed mRNA in the absence of chemical substance” value (yeast gene YCR048W) of the same compound?
A: 0.2

Q: What about the “The level of expressed mRNA in the presence of chemical substance/The level of expressed mRNA in the absence of chemical substance” value (yeast gene YCR098C) of the same compound?
A: 1.6

Q: What about the “The level of expressed mRNA in the presence of chemical substance/The level of expressed mRNA in the absence of chemical substance” value (yeast gene YDR009W) of the same compound?
A: 2.4

Q: What about the “The level of expressed mRNA in the presence of chemical substance/The level of expressed mRNA in the absence of chemical substance” value (yeast gene YDR019C) of the same compound?
A: 4.8

Q: What about the “level of expressed mRNA in the presence/in the absence of chemical substance” value (yeast gene YDR050C) of the same compound?
A: 1.7

Q: And the “level of expressed mRNA in the presence/in the absence of chemical substance” value (yeast gene YDR073W)?
A: 1.3

Q: What about the “level of expressed mRNA in the presence/in the absence of chemical substance” value (yeast gene YDR123C) of the same compound?
A: 0.7

Q: And the “level of expressed mRNA in the presence/in the absence of chemical substance” value (yeast gene YDR178W)?
A: 2.1

Q: And the “level of expressed mRNA in the presence/in the absence of chemical substance” value (yeast gene YDR277C)?
A: 1.1

Q: What about the “level of expressed mRNA in the presence/in the absence of chemical substance” value (yeast gene YDR284C) of the same compound?
A: 1.8

Q: And the “level of expressed mRNA in the presence/in the absence of chemical substance” value (yeast gene YDR345C)?
A: 1.2

Q: What about the “The level of expressed mRNA in the presence of chemical substance/The level of expressed mRNA in the absence of chemical substance” value (yeast gene YDR380W) of the same compound?
A: 0.4

Q: What about the “level of expressed mRNA in the presence/in the absence of chemical substance” value (yeast gene YDR400W) of the same compound?
A: 1.1

Q: And the “level of expressed mRNA in the presence/in the absence of chemical substance” value (yeast gene YDR408C)?
A: 0.9

Q: And the “level of expressed mRNA in the presence/in the absence of chemical substance” value (yeast gene YDR483W)?
A: 1.5

Q: And the “The level of expressed mRNA in the presence of chemical substance/The level of expressed mRNA in the absence of chemical substance” value (yeast gene YDR497C)?
A: 0.6

Q: And the “The level of expressed mRNA in the presence of chemical substance/The level of expressed mRNA in the absence of chemical substance” value (yeast gene YDR502C)?
A: 1.5

Q: And the “The level of expressed mRNA in the presence of chemical substance/The level of expressed mRNA in the absence of chemical substance” value (yeast gene YDR516C)?
A: 1.8

Q: What about the “level of expressed mRNA in the presence/in the absence of chemical substance” value (yeast gene YEL063C) of the same compound?
A: 1.3

Q: And the “The level of expressed mRNA in the presence of chemical substance/The level of expressed mRNA in the absence of chemical substance” value (yeast gene YER014W)?
A: 4.0

Q: And the “level of expressed mRNA in the presence/in the absence of chemical substance” value (yeast gene YER015W)?
A: 0.9

Q: What about the “The level of expressed mRNA in the presence of chemical substance/The level of expressed mRNA in the absence of chemical substance” value (yeast gene YER026C) of the same compound?
A: 2.5

Q: What about the “The level of expressed mRNA in the presence of chemical substance/The level of expressed mRNA in the absence of chemical substance” value (yeast gene YER053C) of the same compound?
A: 2.8

Q: What about the “The level of expressed mRNA in the presence of chemical substance/The level of expressed mRNA in the absence of chemical substance” value (yeast gene YER069W) of the same compound?
A: 1.3

Q: What about the “level of expressed mRNA in the presence/in the absence of chemical substance” value (yeast gene YER081W) of the same compound?
A: 1.1

Q: And the “The level of expressed mRNA in the presence of chemical substance/The level of expressed mRNA in the absence of chemical substance” value (yeast gene YER096W)?
A: 1.2

Q: What about the “level of expressed mRNA in the presence/in the absence of chemical substance” value (yeast gene YER120W) of the same compound?
A: 1.5

Q: What about the “The level of expressed mRNA in the presence of chemical substance/The level of expressed mRNA in the absence of chemical substance” value (yeast gene YER178W) of the same compound?
A: 2.5

Q: What about the “level of expressed mRNA in the presence/in the absence of chemical substance” value (yeast gene YFL011W) of the same compound?
A: 1.0

Q: What about the “The level of expressed mRNA in the presence of chemical substance/The level of expressed mRNA in the absence of chemical substance” value (yeast gene YFL014W) of the same compound?
A: 9.3

Q: What about the “The level of expressed mRNA in the presence of chemical substance/The level of expressed mRNA in the absence of chemical substance” value (yeast gene YFL030W) of the same compound?
A: 1.3

Q: And the “The level of expressed mRNA in the presence of chemical substance/The level of expressed mRNA in the absence of chemical substance” value (yeast gene YFL031W)?
A: 0.3
